Test results: PubChem BioAssay (NCI)
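A five-concentration, 48-hour dose response in 96-well plates underlies each endpoint, interpolated linearly between surrounding concentrations. GI50 marks 50% less growth. TGI: total growth inhibition.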

Key:
Experiment in all cases: growth of human tumour cells (NCI), 48 h
[1] = tested on: COLO 205 colon
[2] = tested on: UACC-257 melanoma
[3] = tested on: IGROV1 ovarian
[4] = tested on: OVCAR-5 ovarian
[5] = tested on: SN12C renal
[6] = tested on: RPMI-8226 leukemia
[7] = tested on: SF-539 CNS
[8] = tested on: U251 CNS
[9] = tested on: UACC-62 melanoma
[10] = tested on: HCT-15 colon

| SMILES | TGI [1] [µM] | TGI [2] [µM] | TGI [3] [µM] | TGI [4] [µM] | TGI [5] [µM] | TGI [6] [µM] | TGI [7] [µM] | TGI [8] [µM] | TGI [9] [µM] | TGI [10] [µM] | GI50 [1] [µM] | GI50 [2] [µM] | GI50 [3] [µM] | GI50 [4] [nM] | GI50 [5] [µM] | GI50 [6] [nM] | GI50 [7] [nM] | GI50 [8] [nM] | GI50 [9] [nM] | GI50 [10] [nM] |
| --- | --- | --- | --- | --- | --- | --- | --- | --- | --- | --- | --- | --- | --- | --- | --- | --- | --- | --- | --- | --- |
| CN1C2C=C(c3ccccc3)CC1CC2 (stereo not given) | > 100 | > 100 | > 100 | > 100 | > 100 | > 100 | > 100 | > 100 | > 100 | > 100 | – | – | – | – | – | – | – | – | – | – |
| CCOc1ccc(/C=C/[N+](=O)[O-])cc1 | 15.5 | 24 | > 100 | 19.8 | 28.3 | 6.17 | 6.4 | 8.83 | 27.2 | 11.3 | 4.71 | 11.2 | 21.8 | 6310 | 14.7 | 2140 | 2350 | 3100 | 13800 | 2840 |
| O=C1Nc2ccccc2Nc2nc3cccccc-3c21 | > 100 | – | > 100 | > 100 | > 100 | > 100 | > 100 | > 100 | > 100 | > 100 | – | – | – | – | – | – | – | – | – | – |
| CC1(C)CCc2cc3c(-c4ccccc4)cc(=O)oc3cc2O1 | > 100 | – | > 100 | – | > 100 | > 100 | > 100 | > 100 | > 100 | > 100 | – | – | – | – | – | – | – | – | – | – |
| [C-]#[O+].[Cl][Sn]([Cl])[Cl].[Cl][Sn]([Cl])[Cl].[Pt].c1ccncc1 | > 100 | > 100 | > 100 | > 100 | > 100 | > 100 | > 100 | > 100 | > 100 | > 100 | – | – | – | – | – | – | – | – | – | – |
| c1ccc2c(c1)nc1n2CSC1 | > 100 | – | > 100 | – | > 100 | > 100 | > 100 | > 100 | > 100 | > 100 | – | – | – | – | – | – | – | – | – | – |
| O=C(Nc1ccc(Cl)cc1)/C(Cc1cccc[n+]1[O-])=N\Nc1ccc([N+](=O)[O-])cc1[N+](=O)[O-] | > 100 | > 100 | > 100 | > 100 | > 100 | > 100 | > 100 | > 100 | > 100 | > 100 | – | – | – | – | – | – | – | – | – | – |
| CC(C)=CC(=O)OC1C2C(C)C(=O)OC2C(O)C(C)C2C=CC(=O)C21C (stereo not given) | 5.83 | 8.4 | 7.48 | 12.9 | 8.19 | 11.7 | 9.5 | 8.3 | 4.64 | 8.52 | – | – | – | – | – | – | – | – | – | – |
| O=C(Nc1nc2ccc([N+](=O)[O-])cc2[n+]([O-])n1)C(F)(F)F | > 100 | 37.9 | 44.5 | > 100 | > 100 | 41.4 | > 100 | > 100 | 53.1 | 98.8 | – | – | – | – | – | – | – | – | – | – |
| O=C1CN2C(Cl)(Cl)C2(c2ccccc2)c2cc(Cl)ccc2N1CC(F)(F)F (stereo not given) | 39.3 | 51.9 | 73.7 | > 100 | 30.6 | 78.5 | – | 37.8 | > 100 | 81.6 | – | – | – | – | – | – | – | – | – | – |
| CCOP(=O)(OCC)C(Cc1ccc(OC)c(OC)c1)N=C(c1ccccc1)c1ccccc1 (stereo not given) | 38.1 | > 100 | > 100 | > 100 | > 100 | 44.3 | > 100 | > 100 | > 100 | > 100 | – | – | – | – | – | – | – | – | – | – |
| Cc1nc2ccccc2c(=O)n1CC(=O)O | > 100 | > 100 | > 100 | > 100 | > 100 | > 100 | > 100 | > 100 | > 100 | > 100 | – | – | – | – | – | – | – | – | – | – |
| Cc1cccc2c(N)c3cccc(C(=O)NCCN(C)C)c3nc12 | 0.229 | 0.658 | 0.508 | 0.723 | 0.457 | 0.128 | – | 0.604 | 0.227 | 4.29 | – | – | – | – | – | – | – | – | – | – |
| C[C@]12C=CC(=O)C=C1CC[C@@H]1[C@@H]2C(=O)C[C@@]2(C)[C@H]1CC[C@]2(O)C(=O)CO | > 100 | > 100 | > 100 | > 100 | > 100 | > 100 | > 100 | > 100 | > 100 | > 100 | – | – | – | – | – | – | – | – | – | – |
| CCN(CC)CCCC(Nc1c2ccc(Cl)cc2nc2ccc(OC)cc12)c1ccc(F)cc1 (stereo not given) | 4.53 | 4.1 | 9.06 | 5.6 | 4.68 | 5.36 | 3.25 | 3.88 | 3.25 | 3.27 | 2.05 | 2.02 | 3.15 | 2040 | 2.03 | 2180 | 1730 | 1920 | 1710 | 1560 |
| O=C(O)c1cc(=O)[nH]c(=S)[nH]1 | > 100 | > 100 | > 100 | > 100 | > 100 | > 100 | – | > 100 | > 100 | > 100 | – | – | – | – | – | – | – | – | – | – |
| CC[C@@H](C(=O)[C@@H](C)[C@@H](O)[C@H](C)CCc1ccc(C)c(O)c1C(=O)O)[C@H]1O[C@](CC)([C@H]2CC[C@](O)(CC)[C@H](C)O2)C[C@@H]1C | 4.76 | 11.3 | 13.3 | 19.3 | 10 | 5.28 | 5.46 | 6.33 | 4.04 | 16 | – | – | – | – | – | – | – | – | – | – |
| COc1c2c(cc3c(CCc4ccccc4)cc(=O)oc13)CCC(C)(C)O2 | > 100 | > 100 | > 100 | > 100 | > 100 | > 100 | – | > 100 | > 100 | > 100 | – | – | – | – | – | – | – | – | – | – |
| Cc1ccc(/C(=C/C=C(C#N)C#N)Sc2cc(Cl)ccc2Cl)cc1 | 20.4 | 7.8 | 32.6 | 19.4 | 13.9 | – | 12.4 | 15 | 15.3 | 12.5 | – | – | – | – | – | – | – | – | – | – |
| CC(C)=CCc1c(C)cc2cc3c(c(O)c2c1O)C(O)=CC(=O)C3(CC=C(C)C)C/C=C(\C)CO (stereo not given) | 80.1 | 82.6 | 79.6 | 84.6 | 76.8 | 67.6 | 76.2 | 70 | 67.5 | 68 | – | – | – | – | – | – | – | – | – | – |
| CN1CCN(Cc2ccc(NC(=O)c3ccc(C#N)c(C#Cc4cnc(N)c5ncccc45)c3)cc2C(F)(F)F)CC1 | > 100 | – | 7.01 | 3.34 | 5.43 | 8.59 | 3.06 | – | 3.26 | – | 4.02 | – | 1.76 | 1710 | 2.19 | 2740 | 1520 | – | 1730 | – |
| CCCCN(CCCC)CCCCNc1c(C)cnc2cc(Cl)ccc12 | > 100 | 32.5 | – | 39.1 | > 100 | – | 27 | > 100 | – | > 100 | – | – | – | – | – | – | – | – | – | – |
| CCOc1ccc2c(ccc(/C=C\c3cc(C)c4cccnc4c3O)[n+]2C)c1 | 5.82 | 6.9 | 21.1 | 16.7 | 15.5 | 13.2 | 10.9 | 4.53 | 11.4 | 23.7 | – | – | – | – | – | – | – | – | – | – |
| Cc1ccc(S(=O)(=O)Oc2cc(S(=O)(=O)O)cc3cc(S(=O)(=O)O)cc(N)c23)cc1 | > 100 | > 100 | > 100 | > 100 | > 100 | > 100 | > 100 | > 100 | > 100 | > 100 | – | – | – | – | – | – | – | – | – | – |
| CC1=C[C@]2(CC(C)C3C(CC4(C)C5CCC6C(C)(C)C(=O)CC[C@@]67C[C@@]57CC[C@]34C)O2)OC1=O (stereo not given in full) | > 100 | > 100 | > 100 | > 100 | > 100 | > 100 | 42.5 | > 100 | – | > 100 | – | – | – | – | – | – | – | – | – | – |
| COc1cc2c3c(n(CCN(C)C)c(=O)c2cc1OC)-c1cc2c(cc1C3=O)OCO2 | > 100 | > 100 | > 100 | > 100 | > 100 | 19.2 | 1.59 | > 100 | – | > 100 | – | 12.6 | 18.6 | > 100000 | 4.38 | 31.5 | – | 2640 | – | 2320 |
| CO/N=C1/c2sccc2[C@H](NC(=O)C(F)(F)F)[C@@H]1O | > 100 | > 100 | > 100 | > 100 | > 100 | – | > 100 | > 100 | > 100 | > 100 | – | – | – | – | – | – | – | – | – | – |
